Assay results published in PubChem BioAssay (NCI).
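Results reflect a 48-hour exposure of cells in 96-well plates to compound at five concentrations. The concentration for 50% growth inhibition is given as GI50. TGI denotes the concentration required for complete inhibition of growth.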

What was measured:
Assay in all cases: NCI tumour cell line growth inhibition, 48 h
LOX IMVI melanoma = tested on: LOX IMVI melanoma
SF-295 CNS = tested on: SF-295 CNS
HS 578T breast = tested on: HS 578T breast
EKVX NSCLC = tested on: EKVX NSCLC
SK-MEL-2 melanoma = tested on: SK-MEL-2 melanoma
M14 melanoma = tested on: M14 melanoma
NCI-H522 lung = tested on: NCI-H522 lung
K-562 leukemia = tested on: K-562 leukemia
BT-549 breast = tested on: BT-549 breast
ACHN renal = tested on: ACHN renal

Compound Cc1nc2cncc(C#Cc3cncc(C(=O)Nc4ccc(CN5CCN(C)CC5)c(C(F)(F)F)c4)c3)c2nc1C has a GI50 (LOX IMVI melanoma) of 208 nM, a TGI (LOX IMVI melanoma) of 807 nM and a GI50 (SF-295 CNS) of 2130 nM. The TGI (SF-295 CNS) was 22.2 µM, the GI50 (HS 578T breast) was 193 nM and the TGI (HS 578T breast) was 1.61 µM. The GI50 (EKVX NSCLC) was 800 nM, the TGI (EKVX NSCLC) was 5.05 µM and the GI50 (SK-MEL-2 melanoma) was 204 nM. It also gave a TGI (SK-MEL-2 melanoma) of 940 nM, a GI50 (M14 melanoma) of 144 nM and a TGI (M14 melanoma) of 624 nM. The GI50 (NCI-H522 lung) was 466 nM, the TGI (NCI-H522 lung) was 8210 nM and the GI50 (K-562 leukemia) was 5 nM. The TGI (K-562 leukemia) was 5.81 µM, the GI50 (BT-549 breast) was 1720 nM and the TGI (BT-549 breast) was 7.8 µM. For the same compound, the GI50 (ACHN renal) was 0.183 µM and the TGI (ACHN renal) was 2.53 µM.

In the case of C=C(C)C(=O)OC1CC2(C)OC2CC(OC(C)=O)/C(C)=C/C2OC(=O)C(=C)C21 (stereo unspecified), the TGI (LOX IMVI melanoma) was 7670 nM, the TGI (SF-295 CNS) was 30.3 µM and the TGI (HS 578T breast) was 30.6 µM. The TGI (EKVX NSCLC) was 18.2 µM, the TGI (SK-MEL-2 melanoma) was 18100 nM and the TGI (M14 melanoma) was 9390 nM. It also gave a TGI (NCI-H522 lung) of 851 nM, a TGI (K-562 leukemia) of 4.62 µM and a TGI (BT-549 breast) of 5.41 µM. It also gave a TGI (ACHN renal) of 3.34 µM.

Work on COc1cc2c(c(OC)c1OC)-c1ccc(NNC(=S)N(Cc3cccc(C[N+](Cc4cccc(CNC56CC7CC(CC(C7)C5)C6)c4)(Cc4cccc(CNC56CC7CC(CC(C7)C5)C6)c4)Cc4cccc(CN(C(=S)NNc5ccc6c(cc5=O)[C@@H](NC(C)=O)CCc5cc(OC)c(OC)c(OC)c5-6)C56CC7CC(CC(C7)C5)C6)c4)c3)C34CC5CC(CC(C5)C3)C4)c(=O)cc1[C@@H](NC(C)=O)CC2 (stereo partly specified) yielded a GI50 (LOX IMVI melanoma) of 873 nM, a TGI (LOX IMVI melanoma) of 2860 nM and a GI50 (SF-295 CNS) of 1530 nM. It also gave a TGI (SF-295 CNS) of 5.92 µM, a GI50 (HS 578T breast) of 1220 nM and a TGI (HS 578T breast) of 6.76 µM. The GI50 (EKVX NSCLC) was 2680 nM, the TGI (EKVX NSCLC) was 8.46 µM and the GI50 (SK-MEL-2 melanoma) was 861 nM. For the same compound, the TGI (SK-MEL-2 melanoma) was 2760 nM, the GI50 (M14 melanoma) was 822 nM and the TGI (M14 melanoma) was 2260 nM. For the same compound, the GI50 (NCI-H522 lung) was 699 nM, the TGI (NCI-H522 lung) was 1880 nM and the GI50 (BT-549 breast) was 1550 nM. For the same compound, the TGI (BT-549 breast) was 5.89 µM, the GI50 (ACHN renal) was 3.68 µM and the TGI (ACHN renal) was 7.99 µM.

Nc1c(C(=O)c2cccc(-c3ccc[n+]([O-])c3)c2)cnn1-c1ccc(F)cc1F showed a GI50 (LOX IMVI melanoma) greater than 25000 nM, a TGI (LOX IMVI melanoma) greater than 25000 nM and a GI50 (SF-295 CNS) greater than 25000 nM. For the same compound, the TGI (SF-295 CNS) was greater than 25 µM, the GI50 (HS 578T breast) was greater than 25000 nM and the TGI (HS 578T breast) was greater than 25 µM. The GI50 (SK-MEL-2 melanoma) was greater than 25000 nM, the TGI (SK-MEL-2 melanoma) was greater than 25000 nM and the GI50 (M14 melanoma) was greater than 25000 nM. For the same compound, the TGI (M14 melanoma) was greater than 25000 nM, the GI50 (NCI-H522 lung) was greater than 25000 nM and the TGI (NCI-H522 lung) was greater than 25000 nM. It also gave a GI50 (K-562 leukemia) greater than 25000 nM, a TGI (K-562 leukemia) greater than 25 µM and a GI50 (BT-549 breast) greater than 25000 nM. The TGI (BT-549 breast) was greater than 25 µM, the GI50 (ACHN renal) was greater than 25 µM and the TGI (ACHN renal) was greater than 25 µM.

Work on Nc1ccc(-c2nc3ccccc3[nH]2)c(O)c1 yielded a GI50 (LOX IMVI melanoma) of 40800 nM, a TGI (LOX IMVI melanoma) greater than 100000 nM and a GI50 (SF-295 CNS) of 26500 nM. It also gave a TGI (SF-295 CNS) of 63.4 µM, a GI50 (HS 578T breast) of 21500 nM and a TGI (HS 578T breast) of 71.7 µM. The GI50 (EKVX NSCLC) was 15100 nM, the TGI (EKVX NSCLC) was greater than 100 µM and the GI50 (SK-MEL-2 melanoma) was greater than 100000 nM. It also gave a TGI (SK-MEL-2 melanoma) greater than 100000 nM, a GI50 (M14 melanoma) of 30400 nM and a TGI (M14 melanoma) greater than 100000 nM. For the same compound, the GI50 (NCI-H522 lung) was greater than 100000 nM, the TGI (NCI-H522 lung) was greater than 100000 nM and the GI50 (K-562 leukemia) was 31500 nM. For the same compound, the TGI (K-562 leukemia) was greater than 100 µM, the GI50 (BT-549 breast) was 50900 nM and the TGI (BT-549 breast) was greater than 100 µM. The GI50 (ACHN renal) was 24.3 µM and the TGI (ACHN renal) was 82.9 µM.

Work on OCc1cccc(-c2ccc3ncc(-c4nc(NC5CC5)ncc4F)n3c2)c1 yielded a GI50 (LOX IMVI melanoma) of 118 nM, a TGI (LOX IMVI melanoma) of 1210 nM and a GI50 (SF-295 CNS) of 334 nM. The TGI (SF-295 CNS) was 1.59 µM, the GI50 (HS 578T breast) was 212 nM and the TGI (HS 578T breast) was 0.701 µM. The GI50 (EKVX NSCLC) was 296 nM, the TGI (EKVX NSCLC) was 0.946 µM and the GI50 (SK-MEL-2 melanoma) was 244 nM. For the same compound, the TGI (SK-MEL-2 melanoma) was 671 nM, the GI50 (M14 melanoma) was 328 nM and the TGI (M14 melanoma) was 1150 nM. For the same compound, the GI50 (NCI-H522 lung) was 316 nM, the TGI (NCI-H522 lung) was 2340 nM and the GI50 (K-562 leukemia) was 434 nM. For the same compound, the TGI (K-562 leukemia) was greater than 100 µM, the GI50 (BT-549 breast) was 230 nM and the TGI (BT-549 breast) was 0.811 µM. For the same compound, the GI50 (ACHN renal) was 0.134 µM and the TGI (ACHN renal) was 1.24 µM.

NC1C2C(CC(=O)O)OCC=C3CN4CCC1(C(=O)C(=O)O)C4CC32 (stereo unspecified) showed a TGI (LOX IMVI melanoma) greater than 100000 nM, a TGI (SF-295 CNS) greater than 100 µM and a TGI (HS 578T breast) greater than 100 µM. The TGI (EKVX NSCLC) was greater than 100 µM, the TGI (SK-MEL-2 melanoma) was greater than 100000 nM and the TGI (M14 melanoma) was greater than 100000 nM. It also gave a TGI (NCI-H522 lung) greater than 100000 nM, a TGI (K-562 leukemia) greater than 100 µM and a TGI (BT-549 breast) greater than 100 µM. The TGI (ACHN renal) was greater than 100 µM.
